Laboratory results taken from patent publication US20240016900A1, “COLLAGEN PEPTIDE-BASED MEDICAMENT COMPOSITIONS AND USES THEREOF” (SUSTAIN HOLDINGS, LLC, priority 2022, published 2024).

Legend:
[1] = cited from earlier work; for melting temperature of a triple helix: Sakakibara et al. 1973
[2] = system: glial lamina at the optic nerve head; assay: AFM measurement of Young's Modulus and morphology in glial lamina of mouse eye explants after MMP1 treatment, with or without CMP; settings: MMP1 alone, 5 μg/ml for 30 minutes, compared with untreated baseline
Excerpt: To conduct these studies, mouse eyes were explanted and thin sectioned as described in Example 2 above, and sections of the glial lamina and the peripapillary sclera were examined by atomic force microscopy (AFM).
To increase the statistical significance of these studies, AFM was used to make Young's Modulus measurements across a large number of points in multiple individual locations in a given sample of glial lamina, as was done in Example 2 for peripapillary sclera.

glial lamina = assay: Fluorescence microscopy of disrupted (RCHP) and intact (Col1) collagen in explants, glial lamina; set-up: species or system mouse; settings: MMP1 alone 30 minutes
Procedure: (§1) To examine the distribution of disrupted and intact collagen in such explants, samples prepared as above were treated with DAPI (to localize cell nuclei), a fluorescently labeled antibody against type I collagen (“Col1”), and a Cy3-labeled collagen hybridizing peptide (“RCHP”) which binds only to areas of disrupted collagen.

[3] = system: peripapillary sclera in mouse eyes; assay: AFM measurement of Young's Modulus in mouse peripapillary sclera explants after MMP treatment, with or without CMP; settings: MMP1 alone, 50 μg/ml for 30 minutes, compared with untreated baseline
Excerpt: Therefore, to examine the possible therapeutic effects of CMPs of the invention in treating myopia, studies were designed to test the effects of certain CMPs conjugates in a model of the in vivo setting—an ex vivo study of the collagen matrix in the peripapillary sclera in mouse eyes. To conduct these studies, mouse eyes were explanted and thin sectioned, and sections of the peripapillary sclera (the scleral area adjacent to the optic nerve head) were examined by atomic force microscopy (AFM).
To examine the impact of matrix metalloproteinase (MMP) treatment, with or without subsequent CMP treatment, on the stiffness of the mouse peripapillary scleral explants, samples were treated with MMP (50 μg/ml for 30 minutes), followed by either a PBS washout or by treatment with a CMP-containing formulation of the invention for 60 minutes.
To increase the statistical significance of these studies, AFM was used to make Young's Modulus measurements across a large number of points in multiple individual locations in a given sample of peripapillary sclera.

Human type I collagen = Human type I collagen (Homo sapiens, UniProt P02452+P08123); assay: AFM of type I collagen plated on substrates, MMP1 with or without CMP13; assay type: biochemical; settings: collagen 10 μg/ml; MMP1 alone 60 ng/ml for 30 minutes
Excerpt: In untreated (baseline) samples, extensive and multilamellar networks of collagen fibers, fibrils and bundles could be readily observed (FIGS. 15A, 15B).

peripapillary sclera = assay: Fluorescence microscopy of disrupted (RCHP) and intact (Col1) collagen in explants, peripapillary sclera; set-up: species or system mouse; settings: MMP1 alone 30 minutes
Procedure: as §1

Human type I collagen, sequence (P02452 162-1218 limits assumed): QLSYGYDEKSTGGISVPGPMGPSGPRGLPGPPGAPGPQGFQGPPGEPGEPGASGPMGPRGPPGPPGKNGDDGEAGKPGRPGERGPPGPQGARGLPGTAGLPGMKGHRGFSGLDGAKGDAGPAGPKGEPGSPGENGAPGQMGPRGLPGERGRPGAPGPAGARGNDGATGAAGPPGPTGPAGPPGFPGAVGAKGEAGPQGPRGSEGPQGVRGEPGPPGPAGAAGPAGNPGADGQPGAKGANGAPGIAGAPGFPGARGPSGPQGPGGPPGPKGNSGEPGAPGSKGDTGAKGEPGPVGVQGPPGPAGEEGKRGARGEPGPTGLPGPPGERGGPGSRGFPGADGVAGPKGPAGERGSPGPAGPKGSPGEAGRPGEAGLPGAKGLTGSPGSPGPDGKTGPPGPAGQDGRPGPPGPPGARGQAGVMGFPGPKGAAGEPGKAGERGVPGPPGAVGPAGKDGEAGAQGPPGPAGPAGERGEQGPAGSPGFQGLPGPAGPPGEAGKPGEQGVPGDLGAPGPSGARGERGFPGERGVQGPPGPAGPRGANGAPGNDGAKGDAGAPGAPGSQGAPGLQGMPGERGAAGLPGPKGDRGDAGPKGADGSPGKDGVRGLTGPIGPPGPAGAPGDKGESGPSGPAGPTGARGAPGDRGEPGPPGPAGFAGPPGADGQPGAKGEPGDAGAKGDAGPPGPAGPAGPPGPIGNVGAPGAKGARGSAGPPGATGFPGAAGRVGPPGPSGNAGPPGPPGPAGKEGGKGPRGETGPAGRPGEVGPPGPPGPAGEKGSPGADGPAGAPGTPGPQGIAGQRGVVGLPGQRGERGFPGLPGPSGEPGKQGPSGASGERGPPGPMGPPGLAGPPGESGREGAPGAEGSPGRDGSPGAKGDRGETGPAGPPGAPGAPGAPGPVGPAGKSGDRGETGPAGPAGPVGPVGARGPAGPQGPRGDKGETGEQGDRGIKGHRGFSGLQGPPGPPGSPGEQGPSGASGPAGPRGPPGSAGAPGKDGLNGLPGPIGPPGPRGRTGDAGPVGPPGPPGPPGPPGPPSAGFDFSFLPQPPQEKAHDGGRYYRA
Human type I collagen, sequence (P08123 80-1119 limits assumed): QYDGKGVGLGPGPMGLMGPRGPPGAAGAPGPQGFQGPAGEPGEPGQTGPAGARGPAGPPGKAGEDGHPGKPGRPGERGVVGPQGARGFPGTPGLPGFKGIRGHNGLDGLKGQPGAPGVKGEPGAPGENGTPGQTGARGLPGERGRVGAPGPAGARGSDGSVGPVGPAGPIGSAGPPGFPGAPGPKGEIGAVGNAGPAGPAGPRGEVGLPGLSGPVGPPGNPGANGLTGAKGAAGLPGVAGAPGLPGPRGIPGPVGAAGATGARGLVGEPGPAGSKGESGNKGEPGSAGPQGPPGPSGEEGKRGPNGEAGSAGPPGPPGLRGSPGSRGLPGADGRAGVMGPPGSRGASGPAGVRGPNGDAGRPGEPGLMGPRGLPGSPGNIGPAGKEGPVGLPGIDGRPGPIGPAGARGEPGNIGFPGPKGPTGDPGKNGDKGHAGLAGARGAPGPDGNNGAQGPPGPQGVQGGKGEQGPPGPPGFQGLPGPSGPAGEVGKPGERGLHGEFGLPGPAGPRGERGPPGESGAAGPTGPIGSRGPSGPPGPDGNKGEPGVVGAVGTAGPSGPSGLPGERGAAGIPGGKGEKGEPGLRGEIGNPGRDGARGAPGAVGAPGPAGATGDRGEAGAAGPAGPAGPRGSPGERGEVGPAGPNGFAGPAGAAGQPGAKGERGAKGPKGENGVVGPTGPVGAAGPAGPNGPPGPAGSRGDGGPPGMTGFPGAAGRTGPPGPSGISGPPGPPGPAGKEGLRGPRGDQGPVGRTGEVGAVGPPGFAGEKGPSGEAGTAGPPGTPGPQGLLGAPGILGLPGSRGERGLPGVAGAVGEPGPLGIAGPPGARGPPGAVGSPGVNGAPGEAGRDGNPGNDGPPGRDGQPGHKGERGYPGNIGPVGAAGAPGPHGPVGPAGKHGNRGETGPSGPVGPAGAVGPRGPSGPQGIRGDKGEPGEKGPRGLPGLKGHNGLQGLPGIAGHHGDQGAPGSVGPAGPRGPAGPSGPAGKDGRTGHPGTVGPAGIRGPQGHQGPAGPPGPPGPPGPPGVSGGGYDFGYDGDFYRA

Substance | melting temperature of a triple helix [1] [°C] | rate at which chains fold into a triple helix ([1]; relative to (ProProGly)10, Chopra and Ananthanarayanan 1982) | Young's Modulus (glial lamina stiffness) [2] | Young's Modulus (glial lamina stiffness) ([2]; listed as MMP) | disrupted collagen (RCHP) (glial lamina) | intact collagen (Col1) (glial lamina) | Young's Modulus (scleral stiffness) [3] | Young's Modulus (scleral stiffness) ([3]; listed as MMP) | collagen fiber/fibril networks on substrate (AFM) (Human type I collagen) | disrupted collagen (RCHP) (peripapillary sclera)
(ProHypGly)10 | 58 | substantially greater |  |  |  |  |  |  |  | 
(ProProGly)10 | 24 |  |  |  |  |  |  |  |  | 
MMP1: matrix metalloproteinase 1, used to disrupt collagen in explants and on substrates |  |  | significant decrease in Young's Modulus | adversely affecting the stiffness of the glial lamina | large amount of disrupted collagen | nearly devoid of intact collagen | significant decrease in Young's Modulus | significantly reduced the scleral stiffness | substantial amount of disorganized collagen and little remaining fiber/fibril formation | large amount of disrupted collagen
